This experiment has as its system β-catenin-TCF-mediated reporter transcription activity in Colo 205 cells. Briefly: Colo 205 reporter assay (TCF/LEF luciferase). The format is cell-based. To be noted: Colo 205 TCF/LEF luciferase reporter, five hours after addition of compound, read-out: TCF reporter Colo205 IC50. The gist of the method:
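Luciferase signal from a TCF/LEF-driven reporter, stably integrated in Colo 205 colon cancer cells, was measured 5 h after compound addition.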

The source of these data is patent US20230312587A1, “PTERIDINONE COMPOUNDS AND USES THEREOF” (Vertex Pharmaceutical Incorporated, priority 2018, published 2023).

Where two headings read alike, the source gives them in different places. Bounds are passed on as bounds.

What is called IC50 is the concentration that gives 50% inhibition.

As to `COc1cc(OC[C@H]2C[C@@H](Nc3nc(C)c4c(n3)N(C)[C@@H](C)C(=O)N4)C2)cc(OC)c1OC` [Compound 280, (7S)-4,7,8-trimethyl-2-((cis-3-((3,4,5-trimethoxyphenoxy)methyl)-cyclobutyl)amino)-7,8-dihydropteridin-6(5H)-one], for the setting “Homo sapiens, COLO 205, 5 h”, the half-inhibitory concentration (IC50) is under 300 nM.
On the same count and under the same terms, the value for `Cc1nc(N[C@H]2C[C@@H](COc3ccc(F)c(F)c3F)C2)nc2c1NC(=O)[C@H](C)N2C` [Compound 281, (7S)-4,7,8-trimethyl-2-((cis-3-((2,3,4-trifluorophenoxy)methyl)cyclobutyl)-amino)-7,8-dihydropteridin-6(5H)-one] was under 300 nM; that for `Cc1nc(N[C@H]2C[C@@H](COc3ccc(F)cc3Cl)C2)nc2c1NC(=O)[C@H](C)N2C` [Compound 282, (7S)-2-((cis-3-((2-chloro-4-fluorophenoxy)methyl)cyclobutyl)amino)-4,7,8-trimethyl-7,8-dihydropteridin-6(5H)-one] was under 300 nM; that for `C#Cc1cccc(OC[C@H]2C[C@@H](Nc3nc(C)c4c(n3)N(C)[C@@H](C)C(=O)N4)C2)c1` [Compound 283, (7S)-2-((cis-3-((3-ethynylphenoxy)methyl)cyclobutyl)amino)-4,7,8-trimethyl-7,8-dihydropteridin-6(5H)-one] was under 300 nM.
`COc1c(F)cc(OC[C@H]2C[C@@H](Nc3nc(C)c4c(n3)N(C)[C@@H](C)C(=O)N4)C2)cc1F` [Compound 284, (7S)-2-((cis-3-((3,5-difluoro-4-methoxyphenoxy)methyl)cyclobutyl)amino)-4,7,8-trimethyl-7,8-dihydropteridin-6(5H)-one]: the IC50 (Homo sapiens, COLO 205, 5 h) was under 300 nM.
With `Cc1nc(N[C@H]2C[C@@H](COc3cc(F)c(F)cc3F)C2)nc2c1NC(=O)[C@H](C)N2C` [Compound 285, (7S)-4,7,8-trimethyl-2-((cis-3-((2,4,5-trifluorophenoxy)methyl)cyclobutyl)-amino)-7,8-dihydropteridin-6(5H)-one], the IC50 (Homo sapiens, COLO 205, 5 h) was under 300 nM.
On the same count and under the same terms, the same measure for `Cc1nc(N[C@H]2C[C@@H](COCc3ccc(F)cc3)C2)nc2c1NC(=O)[C@H](C)N2C` [Compound 286, (7S)-2-((cis-3-(((4-fluorobenzyl)oxy)methyl)cyclobutyl)amino)-4,7,8-trimethyl-7,8-dihydropteridin-6(5H)-one]: under 300 nM; for `COc1c(F)cc(O[C@H]2C[C@H](Nc3nc(C)c4c(n3)N(C)[C@@H](C)C(=O)N4)C2)cc1F` [Compound 287, (7S)-2-((trans-3-(3,5-difluoro-4-methoxyphenoxy)cyclobutyl)amino)-4,7,8-trimethyl-7,8-dihydropteridin-6(5H)-one]: under 300 nM; for `C[C@H]1C(=O)Nc2cnc(N[C@H]3C[C@@H](COCc4ccc(F)cc4)C3)nc2N1C` [Compound 288, (7S)-2-((cis-3-(((4-fluorobenzyl)oxy)methyl)cyclobutyl)amino)-7,8-dimethyl-7,8-dihydropteridin-6(5H)-one]: 300 to 1000 nM.
`Cc1nc(N[C@H]2C[C@H](Oc3ccc(F)c(F)c3F)C2)nc2c1NC(=O)[C@H](C)N2C` [Compound 291, (7S)-4,7,8-trimethyl-2-((trans 3-(2,3,4-trifluorophenoxy)cyclobutyl)amino)-7,8-dihydropteridin-6(5H)-one]: the IC50 (Homo sapiens, COLO 205, 5 h) is under 300 nM.
On the same count and under the same terms, the same measure for `Cc1nc(N[C@H]2C[C@H](Oc3ccc(F)c(F)c3F)C2)nc2c1N(C)C(=O)[C@H](C)N2C` [Compound 293, (7S)-4,5,7,8-tetramethyl-2-((trans-3-(2,3,4-trifluorophenoxy)cyclobutyl)-amino)-7,8-dihydropteridin-6(5H)-one]: under 300 nM; for `Cc1nc(N[C@H]2C[C@H](Oc3cc(F)c(F)cc3F)C2)nc2c1N(C)C(=O)[C@H](C)N2C` [Compound 294, (7S)-4,5,7,8-tetramethyl-2-((trans-3-(2,4,5-trifluorophenoxy)-cyclobutyl)amino)-7,8-dihydropteridin-6(5H)-one]: under 300 nM.
The same measure, in the same setting: the same measure for `Cc1nc(N[C@H]2C[C@H](Oc3ccc(F)cc3F)C2)nc2c1N(C)C(=O)[C@H](C)N2C` [Compound 296, (7S)-2-((trans-3-(2,4-difluorophenoxy)cyclobutyl)amino)-4,5,7,8-tetramethyl-7,8-dihydropteridin-6(5H)-one]: under 300 nM.
On to `Cc1nc(N[C@H]2CO[C@H](COc3cc(F)c(F)c(F)c3)C2)nc2c1NC(=O)[C@H](C)N2C` [Compound 301, (7S)-4,7,8-trimethyl-2-(((3R,5S)-5-((3,4,5-trifluorophenoxy)methyl)tetrahydrofuran-3-yl)amino)-7,8-dihydropteridin-6(5H)-one], for which the IC50 is under 300 nM.
As to `Cc1nc(N[C@H]2CO[C@H](COc3cc(F)c(F)c(F)c3)C2)nc2c1NC(=O)[C@H](C)N2C` [Compound 302, (7S)-4,7,8-trimethyl-2-(((3R,5S)-5-((3,4,5-trifluorophenoxy)methyl)tetrahydrofuran-3-yl)amino)-7,8-dihydropteridin-6(5H)-one], the IC50 lay in the range of 1000 to 5000 nM.
Turning to `Cc1nc(N[C@H]2C[C@H](Sc3ccc(F)cc3)C2)nc2c1NC(=O)[C@H](C)N2C` [Compound 303, (7S)-2-((trans-3-((4-fluorophenyl)thio)cyclobutyl)amino)-4,7,8-trimethyl-7,8-dihydropteridin-6(5H)-one], the IC50 (Homo sapiens, COLO 205, 5 h) lay in the range of 300 to 1000 nM.
On the same count and under the same terms, the same measure for `Cc1nc(N[C@H]2C[C@@H](Sc3ccc(F)cc3)C2)nc2c1NC(=O)[C@H](C)N2C` [Compound 304, (7S)-2-((cis-3-((4-fluorophenyl)thio)cyclobutyl)amino)-4,7,8-trimethyl-7,8-dihydropteridin-6(5H)-one]: 300 to 1000 nM.
Still for that read-out and setting: the value for `Cc1nc(NC2COC(Cn3nccc3C(F)(F)F)C2)nc2c1NC(=O)[C@H](C)N2C` (stereo partly drawn) [Compound 306, (7S)-4,7,8-trimethyl-2-((cis-5-((5-(trifluoromethyl)-1H-pyrazol-1-yl)methyl)-tetrahydrofuran-3-yl)amino)-7,8-dihydropteridin-6(5H)-one] was 1000 to 5000 nM; that for `Cc1nc(N[C@@H]2CO[C@H](COc3cc(F)c(F)c(F)c3)C2)nc2c1NC(=O)[C@H](C)N2C` [Compound 308, (7S)-4,7,8-trimethyl-2-(((3S,5S)-5-((3,4,5-trifluorophenoxy)methyl)tetrahydrofuran-3-yl)amino)-7,8-dihydropteridin-6(5H)-one] was 1000 to 5000 nM.
Consider `Cc1nc(N[C@H]2CO[C@@H](COc3cc(F)c(F)c(F)c3)C2)nc2c1NC(=O)[C@H](C)N2C` [Compound 309, (7S)-4,7,8-trimethyl-2-(((3R,5R)-5-((3,4,5-trifluorophenoxy)methyl)-tetrahydrofuran-3-yl)amino)-7,8-dihydropteridin-6(5H)-one], for which the IC50 (Homo sapiens, COLO 205, 5 h) fell in the range of 300 to 1000 nM.
In the case of `CCN1C(=O)[C@H](C)N(C)c2nc(N[C@H]3C[C@H](Oc4cc(F)c(F)c(F)c4)C3)nc(C)c21` [Compound 312, (7S)-5-ethyl-4,7,8-trimethyl-2-((trans-3-(3,4,5-trifluorophenoxy)-cyclobutyl)amino)-7,8-dihydropteridin-6(5H)-one], the half-inhibitory concentration (IC50) (Homo sapiens, COLO 205, 5 h) was under 300 nM.
`Cc1nc(N[C@H]2C[C@H](Oc3cc(F)c(F)c(F)c3)C2)nc2c1N(CC(F)(F)F)C(=O)[C@H](C)N2C` [Compound 313, (7S)-4,7,8-trimethyl-5-(2,2,2-trifluoroethyl)-2-((trans-3-(3,4,5-trifluorophenoxy)cyclobutyl)-amino)-7,8-dihydropteridin-6(5H)-one]: the IC50 (Homo sapiens, COLO 205, 5 h) was at least 5000 nM.
Same read-out and setting: the same measure for `Cc1nc(N[C@H]2C[C@H](Oc3cncc(C(F)(F)F)c3)C2)nc2c1N(C)C(=O)[C@H](C)N2C` [Compound 314, (7S)-4,5,7,8-tetramethyl-2-((trans-3-((5-(trifluoromethyl)pyridin-3-yl)oxy)cyclobutyl)amino)-7,8-dihydropteridin-6(5H)-one]: 300 to 1000 nM.
For the compound `Cc1nc(N[C@H]2C[C@H](Oc3cncc(C(F)(F)F)c3)C2)nc2c1NC(=O)[C@H](C)N2C` [Compound 315, (7S)-4,7,8-trimethyl-2-((trans-3-((5-(trifluoromethyl)pyridin-3-yl)oxy)cyclobutyl)amino)-7,8-dihydropteridin-6(5H)-one], under “Homo sapiens, COLO 205, 5 h”, the half-maximal inhibitory concentration (IC50) is under 300 nM.
The same measure, in the same setting: the value for `Cc1nc(N[C@H]2C[C@H](Sc3ccc(C(F)(F)F)cc3)C2)nc2c1NC(=O)[C@H](C)N2C` [Compound 317, (7S)-4,7,8-trimethyl-2-((trans-3-((4-(trifluoromethyl)phenyl)thio)-cyclobutyl)amino)-7,8-dihydropteridin-6(5H)-one] was 300 to 1000 nM.
The same measure, in the same setting: the same measure for `Cc1nc(N[C@H]2C[C@H](Sc3ccc(C(F)(F)F)cc3)C2)nc2c1N(C)C(=O)[C@H](C)N2C` [Compound 320, (7S)-4,5,7,8-tetramethyl-2-((trans-3-((4(trifluoromethyl)phenyl)thio)-cyclobutyl)-amino)-7,8-dihydropteridin-6(5H)-one]: 1000 to 5000 nM; for `Cc1nc(N[C@H]2C[C@@H](Sc3ccc(C(F)(F)F)cc3)C2)nc2c1NC(=O)[C@H](C)N2C` [Compound 321, (7S)-4,7,8-trimethyl-2-((cis-3-((4-(trifluoromethyl)phenyl)thio)cyclobutyl)amino)-7,8-dihydropteridin-6(5H)-one]: 300 to 1000 nM.
In the case of `Cc1nc(N[C@H]2C[C@@H](Sc3ccc(C(F)(F)F)cc3)C2)nc2c1N(C)C(=O)[C@H](C)N2C` [Compound 322, (7S)-4,5,7,8-tetramethyl-2-((cis-3-((4-(trifluoromethyl)phenyl)thio)cyclobutyl)amino)-7,8-dihydropteridin-6(5H)-one], the IC50 (Homo sapiens, COLO 205, 5 h) was in the range of 300 to 1000 nM.
Take `Cc1nc(N[C@H]2C[C@H](Oc3ccc(C(F)(F)F)nc3)C2)nc2c1N(C)C(=O)[C@H](C)N2C` [Compound 323, (7S)-4,5,7,8-tetramethyl-2-((trans-3-((6-(trifluoromethyl)pyridin-3-yl)oxy)cyclobutyl)amino)-7,8-dihydropteridin-6(5H)-one]: the half-inhibitory concentration (IC50) (Homo sapiens, COLO 205, 5 h) was under 300 nM.
The same measure, in the same setting: the value for `Cc1nc(N[C@H]2C[C@H](Oc3ccc(OC(F)(F)F)cc3)C2)nc2c1N(C)C(=O)[C@H](C)N2C` [Compound 325, (7S)-4,5,7,8-tetramethyl-2-((trans-3-(4-(trifluoromethoxy)phenoxy)-cyclobutyl)amino)-7,8-dihydropteridin-6(5H)-one] was 300 to 1000 nM.
